# According to paper PMC6591251, “Discovery of potent necroptosis inhibitors targeting RIPK1 kinase activity for the treatment of inflammatory disorder and cancer metastasis” (Cell Death & Disease, 2019):
# Experiments:
# Experiment in all cases: RBC kinase panel
# Format in all cases: biochemical
# Conditions in all cases: ATP 10 μM, Data1, Data2
# PIM2 = target: T1, PIM2 (Homo sapiens, UniProt Q9P1W9)
# T1 construct: purchased Reaction Biology Corporation
# How it was run: (§1)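 Kinases from a 369-member human panel were incubated with 1 μM compound under 10 μM ATP, and every assay was done in duplicate.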
# MARK1 = target: T2, MARK1 (Homo sapiens, UniProt Q9P0L2)
# T2 construct: purchased Reaction Biology Corporation
# How it was run: as §1
# GLK/MAP4K3 = target: T3, GLK/MAP4K3 (Homo sapiens, UniProt Q8IVH8)
# T3 construct: purchased Reaction Biology Corporation
# How it was run: as §1
# FGFR3 = target: T4, FGFR3 (Homo sapiens, UniProt P22607)
# T4 construct: purchased Reaction Biology Corporation
# How it was run: as §1
# RET = target: T5, RET (Homo sapiens, UniProt P07949)
# T5 construct: purchased Reaction Biology Corporation
# How it was run: as §1
# TYK1/LTK = target: T6, TYK1/LTK (Homo sapiens, UniProt P29376)
# T6 construct: purchased Reaction Biology Corporation
# How it was run: as §1
# AKT2 = target: T7, AKT2 (Homo sapiens, UniProt P31751)
# T7 construct: purchased Reaction Biology Corporation
# How it was run: as §1
# FES/FPS = target: T8, FES/FPS (Homo sapiens, UniProt P07332)
# T8 construct: purchased Reaction Biology Corporation
# How it was run: as §1
# ERK7/MAPK15 = target: T9, ERK7/MAPK15 (Homo sapiens, UniProt Q8TD08)
# T9 construct: purchased Reaction Biology Corporation
# How it was run: as §1
# EPHA6 = target: T10, EPHA6 (Homo sapiens, UniProt Q9UF33)
# T10 construct: purchased Reaction Biology Corporation
# How it was run: as §1
# IR = target: T11, IR (Homo sapiens, UniProt P06213)
# T11 construct: purchased Reaction Biology Corporation
# How it was run: as §1
# ULK3 = target: T12, ULK3 (Homo sapiens, UniProt Q6PHR2)
# T12 construct: purchased Reaction Biology Corporation
# How it was run: as §1
# STK32B/YANK2 = target: T13, STK32B/YANK2 (Homo sapiens, UniProt Q9NY57)
# T13 construct: purchased Reaction Biology Corporation
# How it was run: as §1
# STK33 = target: T14, STK33 (Homo sapiens, UniProt Q9BYT3)
# T14 construct: purchased Reaction Biology Corporation
# How it was run: as §1
# GRK3 = target: T15, GRK3 (Homo sapiens, UniProt P35626)
# T15 construct: purchased Reaction Biology Corporation
# How it was run: as §1
# WNK2 = target: T16, WNK2 (Homo sapiens, UniProt Q9Y3S1)
# T16 construct: purchased Reaction Biology Corporation
# How it was run: as §1
# JAK2 = target: T17, JAK2 (Homo sapiens, UniProt O60674)
# T17 construct: purchased Reaction Biology Corporation
# How it was run: as §1
# PAK5 = target: T18, PAK5 (Homo sapiens, UniProt Q9P286)
# T18 construct: purchased Reaction Biology Corporation
# How it was run: as §1
# MNK1 = target: T19, MNK1 (Homo sapiens, UniProt Q9BUB5)
# T19 construct: purchased Reaction Biology Corporation
# How it was run: as §1
# PKCepsilon = target: T20, PKCepsilon (Homo sapiens, UniProt Q02156)
# T20 construct: purchased Reaction Biology Corporation
# How it was run: as §1
# PKG2/PRKG2 = target: T21, PKG2/PRKG2 (Homo sapiens, UniProt Q13237)
# T21 construct: purchased Reaction Biology Corporation
# How it was run: as §1
# TYK2 = target: T22, TYK2 (Homo sapiens, UniProt P29597)
# T22 construct: purchased Reaction Biology Corporation
# How it was run: as §1
# MKK6 = target: T23, MKK6 (Homo sapiens, UniProt P52564)
# T23 construct: purchased Reaction Biology Corporation
# How it was run: as §1
# MKK7 = target: T24, MKK7 (Homo sapiens, UniProt O14733)
# T24 construct: purchased Reaction Biology Corporation
# How it was run: as §1
# BRAF = target: T25, BRAF (Homo sapiens, UniProt P15056)
# T25 construct: purchased Reaction Biology Corporation
# How it was run: as §1
# RIPK5 = target: T26, RIPK5 (Homo sapiens, UniProt Q6XUX3)
# T26 construct: purchased Reaction Biology Corporation
# How it was run: as §1
# CLK4 = target: T27, CLK4 (Homo sapiens, UniProt Q9HAZ1)
# T27 construct: purchased Reaction Biology Corporation
# How it was run: as §1
# TAK1 = target: T28, TAK1 (Homo sapiens, UniProt O43318)
# T28 construct: purchased Reaction Biology Corporation
# How it was run: as §1
# HCK = target: T29, HCK (Homo sapiens, UniProt P08631)
# T29 construct: purchased Reaction Biology Corporation
# How it was run: as §1
# JNK1 = target: T30, JNK1 (Homo sapiens, UniProt P45983)
# T30 construct: purchased Reaction Biology Corporation
# How it was run: as §1
# NLK = target: T31, NLK (Homo sapiens, UniProt Q9UBE8)
# T31 construct: purchased Reaction Biology Corporation
# How it was run: as §1
# PIM3 = target: T32, PIM3 (Homo sapiens, UniProt Q86V86)
# T32 construct: purchased Reaction Biology Corporation
# How it was run: as §1
# MUSK = target: T33, MUSK (Homo sapiens, UniProt O15146)
# T33 construct: purchased Reaction Biology Corporation
# How it was run: as §1
# T27 sequence (Q9HAZ1 whole entry): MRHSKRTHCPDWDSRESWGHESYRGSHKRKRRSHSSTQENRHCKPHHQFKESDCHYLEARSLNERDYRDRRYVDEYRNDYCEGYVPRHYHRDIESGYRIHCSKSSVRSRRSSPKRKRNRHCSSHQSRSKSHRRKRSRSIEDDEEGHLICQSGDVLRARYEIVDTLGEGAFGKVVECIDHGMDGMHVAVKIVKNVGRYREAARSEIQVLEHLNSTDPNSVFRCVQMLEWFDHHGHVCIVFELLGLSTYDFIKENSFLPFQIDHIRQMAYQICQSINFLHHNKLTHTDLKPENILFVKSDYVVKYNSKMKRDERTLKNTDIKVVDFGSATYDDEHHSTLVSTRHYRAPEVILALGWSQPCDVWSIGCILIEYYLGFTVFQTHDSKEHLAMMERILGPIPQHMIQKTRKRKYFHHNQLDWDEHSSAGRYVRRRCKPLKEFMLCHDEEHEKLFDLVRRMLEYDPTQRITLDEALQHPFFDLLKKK
# T5 sequence (P07949 29-1114): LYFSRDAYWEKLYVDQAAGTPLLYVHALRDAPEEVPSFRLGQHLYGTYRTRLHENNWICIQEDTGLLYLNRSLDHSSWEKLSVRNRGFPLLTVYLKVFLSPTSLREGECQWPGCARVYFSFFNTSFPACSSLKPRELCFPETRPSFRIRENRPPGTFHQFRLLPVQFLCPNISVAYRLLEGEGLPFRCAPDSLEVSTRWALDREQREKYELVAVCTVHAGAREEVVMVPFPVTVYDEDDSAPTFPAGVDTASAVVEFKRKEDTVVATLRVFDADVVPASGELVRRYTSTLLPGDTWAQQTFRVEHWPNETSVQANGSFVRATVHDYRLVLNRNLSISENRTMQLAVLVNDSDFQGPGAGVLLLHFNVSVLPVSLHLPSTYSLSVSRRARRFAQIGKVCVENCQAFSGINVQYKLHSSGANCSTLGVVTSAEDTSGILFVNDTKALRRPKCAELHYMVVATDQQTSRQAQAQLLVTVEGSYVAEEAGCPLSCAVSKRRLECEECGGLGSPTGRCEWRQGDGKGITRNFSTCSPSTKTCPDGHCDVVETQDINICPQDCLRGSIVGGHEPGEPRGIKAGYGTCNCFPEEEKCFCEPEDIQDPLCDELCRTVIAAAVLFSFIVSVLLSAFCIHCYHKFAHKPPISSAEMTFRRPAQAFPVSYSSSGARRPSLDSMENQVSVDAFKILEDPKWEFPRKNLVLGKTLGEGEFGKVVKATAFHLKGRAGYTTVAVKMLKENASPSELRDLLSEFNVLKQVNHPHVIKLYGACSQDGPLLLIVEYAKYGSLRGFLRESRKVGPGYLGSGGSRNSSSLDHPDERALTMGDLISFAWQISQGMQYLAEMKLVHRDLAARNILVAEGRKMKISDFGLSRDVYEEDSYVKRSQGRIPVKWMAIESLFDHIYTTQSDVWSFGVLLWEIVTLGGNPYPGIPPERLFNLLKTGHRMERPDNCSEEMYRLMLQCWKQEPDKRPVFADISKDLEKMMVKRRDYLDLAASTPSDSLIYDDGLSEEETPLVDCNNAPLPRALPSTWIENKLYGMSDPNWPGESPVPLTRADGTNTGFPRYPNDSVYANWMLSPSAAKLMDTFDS
# T1 sequence (Q9P1W9 whole entry): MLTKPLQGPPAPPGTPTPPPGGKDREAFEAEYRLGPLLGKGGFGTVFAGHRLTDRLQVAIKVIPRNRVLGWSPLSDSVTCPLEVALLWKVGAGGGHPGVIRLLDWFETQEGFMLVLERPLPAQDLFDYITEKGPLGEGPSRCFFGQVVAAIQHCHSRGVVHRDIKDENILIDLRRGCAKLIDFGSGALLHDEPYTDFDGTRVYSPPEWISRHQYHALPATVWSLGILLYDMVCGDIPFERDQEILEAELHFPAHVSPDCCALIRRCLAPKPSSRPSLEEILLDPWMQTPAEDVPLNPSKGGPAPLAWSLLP
# T19 sequence (Q9BUB5 whole entry): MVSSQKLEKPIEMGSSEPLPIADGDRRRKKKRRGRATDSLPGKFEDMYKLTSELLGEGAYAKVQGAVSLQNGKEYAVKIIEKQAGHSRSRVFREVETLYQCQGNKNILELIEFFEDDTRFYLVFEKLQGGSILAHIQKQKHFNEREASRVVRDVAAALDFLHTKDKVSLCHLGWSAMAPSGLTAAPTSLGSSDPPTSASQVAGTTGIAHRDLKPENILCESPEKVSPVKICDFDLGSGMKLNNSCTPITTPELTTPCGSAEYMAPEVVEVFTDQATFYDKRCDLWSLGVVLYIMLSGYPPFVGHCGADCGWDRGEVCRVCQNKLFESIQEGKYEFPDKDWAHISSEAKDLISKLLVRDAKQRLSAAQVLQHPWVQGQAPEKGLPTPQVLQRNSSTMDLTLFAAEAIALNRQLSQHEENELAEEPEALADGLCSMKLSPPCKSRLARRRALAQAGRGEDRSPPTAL
# T7 sequence (P31751 whole entry): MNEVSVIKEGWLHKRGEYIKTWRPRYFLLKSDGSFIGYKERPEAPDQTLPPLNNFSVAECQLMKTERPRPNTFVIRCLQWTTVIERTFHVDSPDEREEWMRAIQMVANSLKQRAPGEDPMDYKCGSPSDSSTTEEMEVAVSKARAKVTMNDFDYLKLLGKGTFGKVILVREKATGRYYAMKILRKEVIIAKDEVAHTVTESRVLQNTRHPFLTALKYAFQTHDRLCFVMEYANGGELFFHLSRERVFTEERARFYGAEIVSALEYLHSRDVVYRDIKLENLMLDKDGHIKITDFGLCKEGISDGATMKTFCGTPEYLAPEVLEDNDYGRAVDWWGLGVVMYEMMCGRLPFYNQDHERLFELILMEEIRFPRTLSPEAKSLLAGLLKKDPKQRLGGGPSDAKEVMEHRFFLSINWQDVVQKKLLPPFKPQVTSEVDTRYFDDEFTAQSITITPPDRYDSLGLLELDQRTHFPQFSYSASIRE
# T30 sequence (P45983 whole entry): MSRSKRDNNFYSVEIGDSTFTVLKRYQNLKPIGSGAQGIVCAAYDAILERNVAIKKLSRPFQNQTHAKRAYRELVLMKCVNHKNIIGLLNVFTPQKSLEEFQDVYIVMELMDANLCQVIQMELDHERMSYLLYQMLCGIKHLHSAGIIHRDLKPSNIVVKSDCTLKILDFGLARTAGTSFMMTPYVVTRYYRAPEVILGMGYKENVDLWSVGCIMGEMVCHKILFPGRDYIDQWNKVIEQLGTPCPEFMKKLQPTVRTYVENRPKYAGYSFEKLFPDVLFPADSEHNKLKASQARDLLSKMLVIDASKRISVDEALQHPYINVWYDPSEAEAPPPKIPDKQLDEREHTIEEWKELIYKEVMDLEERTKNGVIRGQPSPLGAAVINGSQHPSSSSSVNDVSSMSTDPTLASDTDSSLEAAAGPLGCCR
# T23 sequence (P52564 whole entry): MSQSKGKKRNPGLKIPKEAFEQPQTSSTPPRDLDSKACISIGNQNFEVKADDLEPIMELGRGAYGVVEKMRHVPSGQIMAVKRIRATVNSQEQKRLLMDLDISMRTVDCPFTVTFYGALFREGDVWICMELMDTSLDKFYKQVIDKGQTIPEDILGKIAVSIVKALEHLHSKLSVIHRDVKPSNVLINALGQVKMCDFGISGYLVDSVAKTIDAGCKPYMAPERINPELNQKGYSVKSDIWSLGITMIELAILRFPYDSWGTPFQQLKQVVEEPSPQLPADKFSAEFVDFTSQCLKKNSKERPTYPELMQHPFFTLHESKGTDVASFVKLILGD
# T9 sequence (Q8TD08 whole entry): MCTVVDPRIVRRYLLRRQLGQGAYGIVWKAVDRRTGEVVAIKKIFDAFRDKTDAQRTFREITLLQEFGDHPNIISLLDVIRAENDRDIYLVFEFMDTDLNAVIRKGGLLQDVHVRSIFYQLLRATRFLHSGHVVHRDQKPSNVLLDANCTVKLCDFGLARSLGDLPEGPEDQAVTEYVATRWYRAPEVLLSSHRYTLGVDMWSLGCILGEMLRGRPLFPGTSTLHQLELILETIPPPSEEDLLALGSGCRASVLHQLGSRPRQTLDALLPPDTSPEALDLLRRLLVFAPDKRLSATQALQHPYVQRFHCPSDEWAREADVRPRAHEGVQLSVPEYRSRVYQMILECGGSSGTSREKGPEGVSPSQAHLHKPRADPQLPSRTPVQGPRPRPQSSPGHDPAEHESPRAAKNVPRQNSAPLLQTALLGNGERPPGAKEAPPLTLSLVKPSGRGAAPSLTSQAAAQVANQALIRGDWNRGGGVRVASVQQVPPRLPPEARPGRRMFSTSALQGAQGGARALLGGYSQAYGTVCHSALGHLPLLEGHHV
# T29 sequence (P08631 whole entry): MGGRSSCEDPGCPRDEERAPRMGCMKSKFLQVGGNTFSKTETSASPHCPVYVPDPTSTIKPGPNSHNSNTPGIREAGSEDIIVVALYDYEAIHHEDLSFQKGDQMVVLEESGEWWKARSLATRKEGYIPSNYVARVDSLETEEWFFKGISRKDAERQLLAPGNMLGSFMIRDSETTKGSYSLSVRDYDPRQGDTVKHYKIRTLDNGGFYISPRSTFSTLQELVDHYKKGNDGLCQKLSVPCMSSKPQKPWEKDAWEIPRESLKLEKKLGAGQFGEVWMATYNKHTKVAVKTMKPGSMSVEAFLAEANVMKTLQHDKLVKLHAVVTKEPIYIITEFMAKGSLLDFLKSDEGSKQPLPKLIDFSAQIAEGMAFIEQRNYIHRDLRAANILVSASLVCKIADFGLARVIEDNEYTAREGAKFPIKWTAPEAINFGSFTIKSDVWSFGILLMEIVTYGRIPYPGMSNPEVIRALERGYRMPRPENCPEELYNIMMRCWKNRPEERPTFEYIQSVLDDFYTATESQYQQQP
structure (smiles),measurement,setting,value
"CC(=O)Nc1nc2ccc(-c3cnc(C)c(NC(=O)OC4CCCCC4)c3)cc2s1 [PK68, cyclohexyl (5-(2-acetamidobenzo[d]thiazol-6-yl)-2-methylpyridin-3-yl)carbamate]",Activity%,PIM2; 1 μM,111.50%
same,activity at 1 µM,PIM2,114%
same,Activity%,MARK1; 1 μM,96.33%
same,activity at 1 µM,MARK1,97%
same,Activity%,GLK/MAP4K3; 1 μM,102.14%
same,activity at 1 µM,GLK/MAP4K3,104%
same,Activity%,FGFR3; 1 μM,90.12%
same,activity at 1 µM,FGFR3,90.5%
same,Activity%,RET; 1 μM,66.89%
same,activity at 1 µM,RET,67.7%
same,Activity%,TYK1/LTK; 1 μM,98.39%
same,activity at 1 µM,TYK1/LTK,99.8%
same,Activity%,AKT2; 1 μM,96.89%
same,activity at 1 µM,AKT2,97.5%
same,Activity%,FES/FPS; 1 μM,96.80%
same,activity at 1 µM,FES/FPS,96.9%
same,Activity%,ERK7/MAPK15; 1 μM,96.80%
same,activity at 1 µM,ERK7/MAPK15,99.3%
same,Activity%,EPHA6; 1 μM,97.58%
same,activity at 1 µM,EPHA6,98.1%
same,Activity%,IR; 1 μM,81.00%
same,activity at 1 µM,IR,81.6%
same,Activity%,ULK3; 1 μM,92.16%
same,activity at 1 µM,ULK3,92.9%
same,Activity%,STK32B/YANK2; 1 μM,106.39%
same,activity at 1 µM,STK32B/YANK2,107%
same,Activity%,STK33; 1 μM,91.58%
same,activity at 1 µM,STK33,91.6%
same,Activity%,GRK3; 1 μM,102.09%
same,activity at 1 µM,GRK3,103%
same,Activity%,WNK2; 1 μM,94.21%
same,activity at 1 µM,WNK2,94.6%
same,Activity%,JAK2; 1 μM,96.04%
same,activity at 1 µM,JAK2,98.2%
same,Activity%,PAK5; 1 μM,98.16%
same,activity at 1 µM,PAK5,102%
same,Activity%,MNK1; 1 μM,99.13%
same,activity at 1 µM,MNK1,100%
same,Activity%,PKCepsilon; 1 μM,98.93%
same,activity at 1 µM,PKCepsilon,99.5%
same,Activity%,PKG2/PRKG2; 1 μM,106.03%
same,activity at 1 µM,PKG2/PRKG2,108%
same,Activity%,TYK2; 1 μM,100.62%
same,activity at 1 µM,TYK2,106%
same,Activity%,MKK6; 1 μM,107.08%
same,activity at 1 µM,MKK6,109%
same,Activity%,MKK7; 1 μM,93.03%
same,activity at 1 µM,MKK7,98%
same,Activity%,BRAF; 1 μM,83.61%
same,activity at 1 µM,BRAF,84.8%
same,Activity%,RIPK5; 1 μM,102.45%
same,activity at 1 µM,RIPK5,103%
same,Activity%,CLK4; 1 μM,70.07%
same,activity at 1 µM,CLK4,71%
same,Activity%,TAK1; 1 μM,96.74%
same,activity at 1 µM,TAK1,97.5%
same,Activity%,HCK; 1 μM,100.14%
same,activity at 1 µM,HCK,102%
same,Activity%,JNK1; 1 μM,97.06%
same,activity at 1 µM,JNK1,98.7%
same,Activity%,NLK; 1 μM,98.89%
same,activity at 1 µM,NLK,103%
same,Activity%,PIM3; 1 μM,101.62%
same,activity at 1 µM,PIM3,104%
same,Activity%,MUSK; 1 μM,70.88%
same,activity at 1 µM,MUSK,75.9%
